In patent publication US8815903B2, “Indole derivative and pharmacologically acceptable salt thereof” (Kissei Pharmaceutical Co., Ltd., priority 2011, dated 2014):

Columns and labels:
[1] = biological target: T1, rat EP1 receptor (Rattus norvegicus, UniProt P70597); assay: Test for confirmation of EP1 receptor antagonism (inhibition of PGE2-induced increase in intracellular calcium concentration); type: cell-based; settings: rat EP1 receptor-expressing COS-1 cells; prostaglandin E2 10 nM; fluorescent calcium indicator, FDSS 7000
T1 construct: expressed in transfected cells
T1 sequence (P70597 1-405): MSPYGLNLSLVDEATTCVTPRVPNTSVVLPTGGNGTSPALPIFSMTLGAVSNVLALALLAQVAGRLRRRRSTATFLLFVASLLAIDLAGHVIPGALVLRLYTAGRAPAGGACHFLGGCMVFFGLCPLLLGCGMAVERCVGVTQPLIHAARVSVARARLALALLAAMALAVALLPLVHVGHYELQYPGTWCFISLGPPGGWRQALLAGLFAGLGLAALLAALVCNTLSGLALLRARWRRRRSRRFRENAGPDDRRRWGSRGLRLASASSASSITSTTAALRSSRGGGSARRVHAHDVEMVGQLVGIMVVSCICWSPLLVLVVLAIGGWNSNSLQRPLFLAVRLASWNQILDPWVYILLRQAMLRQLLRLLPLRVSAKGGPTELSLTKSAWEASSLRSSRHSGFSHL
Procedure: Test for Confirmation of EP1 Receptor Antagonism
(1) Preparation of Rat EP1 Expression Vector
Using Rat Kidney BD Marathon-Ready cDNA (Nippon Becton Dickinson Company, Ltd.) as a template, a forward primer shown in (SEQ ID NO:1), and a reverse primer shown in (SEQ ID NO:2), a first run of PCR was carried out using KOD-Plus-Ver 2.0 (Toyobo Co., Ltd.). Further, using this amplification product as a template, a forward primer shown in (SEQ ID NO:3), and a reverse primer shown in (SEQ ID NO:4), a second run of PCR was carried out in the same manner. The amplification product obtained by the second run of PCR was incorporated into a vector (pcDNA3.1 D/V5-His-TOPO (registered trademark), Invitrogen Japan K. K.). By a conventional method, the vector containing this amplification product was introduced to E. coli (One Shot TOP 10 Competent Cells, Invitrogen Corporation) to transform. This transformed E. coli was cultured in an LB agar medium for one day. After the culture, colonies were selected and cultured in an LB liquid medium containing 50 μg/mL of ampicillin. After the culture, the vector was purified using a QIAprep Spin Miniprep Kit (Qiagen K. K.). The base sequence of the insertion site of this vector (SEQ ID NO:5) was compared with the rat EP1 base sequence (Ptger1) registered as Accession No. NM_013100 in publicly-known database (NCBI), and as a result, they all matched except for a single base. Further, the amino acid sequence translated by the base sequence completely matched the amino acid sequence of the rat EP1 receptor registered as an NCBI Accession No. NP_037232. Therefore, it was confirmed that the cloned gene sequence was a base sequence of the rat EP1 receptor and the obtained amino acid sequence was that of the rat EP1 receptor. The pcDNA3.1 D/V5-His-TOPO (registered trademark) to which the nucleic acid shown in (SEQ ID NO:5) had been inserted was taken as a rat EP1-expressing vector.
(2) Preparation of Rat EP1 Receptor-Expressing Cells
COS-1 cells (Dainippon Sumitomo Pharma Co., Ltd.) were cultured until they reached confluence in an incubator at 37° C. under a 5% CO2 gas condition, using a D-MEM liquid medium (high glucose and L-glutamine contained, Invitrogen Corporation) to which a penicillin-streptomycin solution (Invitrogen Corporation, final concentration: 100 U/mL as benzylpenicillin; 100 μg/mL as streptomycin) as an antibiotic, MEM nonessential amino acids (Invitrogen Corporation, final concentration: 0.1 mM), and fetal calf serum (Sanko Junyaku Co., Ltd., final concentration: 10%) were added.
The cells that had reached confluence were stripped with 0.05% trypsin/0.53 mM EDTA.4Na, and resuspended in a D-MEM liquid medium (high glucose and L-glutamine contained, Invitrogen Corporation) to which an MEM nonessential amino acid (final concentration: 0.1 mM) and fetal calf serum (final concentration: 10%) were added. In each well of a Poly D-lysine-coated 96-well microplate (BD BioCoat (registered trademark), Nippon Becton Dickinson Company, Ltd.), this resuspended cell suspension culture was prepared to be 5×10^4 cells/well in 100 μL of the liquid medium, and 100 μL of the cell suspension was seeded on each well. After seeding, the cells were cultured in an incubator at 37° C. under a 5% CO2 gas condition. At a point when the cells for introduction of a rat EP1-expressing vector were adhered (about 2 hours after seeding), introduction of the rat EP1-expressing vector was carried out in the following order.
For introduction of the rat EP1-expressing vector, Lipofectamine 2000 (Invitrogen Japan K. K.) was used. The rat EP1-expressing vector was diluted with OPTI-MEM (registered trademark) I Reduced-Serum Medium (Invitrogen Japan K. K.) to 200 ng/25 μL/well, and at the same time, Lipofectamine 2000 (Invitrogen Japan K. K.) was also diluted with OPTI-MEM (registered trademark) I Reduced-Serum Medium (Invitrogen Japan K. K.) to 0.5 μL/25 μL/well, followed by incubation at room temperature for 5 minutes. […]

[2] = tested on: Sulprostone-Induced Bladder Contraction; assay: Inhibitory effect of compound on sulprostone-induced bladder contraction; type: in vivo, rat; settings: female SD rats, urethane anesthesia, sulprostone 0.3 mg/kg s.c., test agent 1.0 mg/kg intravenously; for Bladder Contraction Inhibition Rate 15 minutes: 15 minutes from administration; for Bladder Contraction Inhibition Rate 60 minutes: 60 minutes from administration
Excerpt: Inhibitory Effect of Compound on Sulprostone-Induced Bladder Contraction
Female SD rats were used. Under urethane anesthesia (1.25 g/kg, administered subcutaneously), a tracheal cannula (Size 8, HIBIKI) and a femoral vein cannula for administration (23 G needle-equipped PESO) were inserted thereinto. The bladder cannula (PESO) was inserted from the bladder apex. The bladder cannula was connected to a three-way stopcock, and then, one was connected to a pressure transducer and the other was connected to a syringe filled with saline. Saline was injected to the bladder at an injection rate of 3.6 mL/hour and the bladder contraction pressure was recorded at the time of injection with a recorder (RECTI-HORITZ-8K, NEC Corporation). After 10 minutes from stabilization of the bladder contraction pressure during urination, sulprostone was administered subcutaneously (0.3 mg/kg). Then, at the time point when the bladder contraction pressure became constant, a test agent was administered intravenously (1.0 mg/kg). An average bladder contraction pressure during the 10 minute period before administration of sulprostone was taken as a baseline (0%). Further, an average bladder contraction pressure during the 10 minute period directly before administration of the test agent was taken as a maximum bladder contraction pressure (100%). The average bladder contraction pressures were measured during 5 minutes before and after at 15 minutes and 60 minutes from administration of the test agent. The ratio of this measured value to the maximum bladder contraction pressure was calculated by the following equation and taken as an average bladder contraction rate after administration of the test agent: (Average Bladder Contraction Rate after Administration of Test Agent (%))=[(Average Bladder Contraction Pressure after Administration of Test Agent)/(Maximum Bladder Contraction Pressure)]×100 EQUATION 1
In addition, the difference between the maximum bladder contraction rate (100%) and the average bladder contraction rate (%) after administration of the test agent was calculated by the following equation and taken as a bladder contraction inhibition rate of the test agent: (Bladder Contraction Inhibition Rate)=100%−(Average Bladder Contraction Rate after Administration of Test Agent (%)) EQUATION 2

| Compound | IC50 [1] [nM] | Bladder Contraction Inhibition Rate 15 minutes [2] [%] | Bladder Contraction Inhibition Rate 60 minutes [2] [%] |
| --- | --- | --- | --- |
| COc1ccc2c(Cc3cccc(-c4nnn[nH]4)n3)c(C(C)(C)C)[nH]c2c1 [Example 5-7, 2-tert-butyl-6-methoxy-3-[6-(1H-tetrazol-5-yl)pyridin-2-ylmethyl]-1H-indole] | 20 | 74.8 | 71.0 |
| COc1ccc2c(Cc3cccc(-c4noc(=O)[nH]4)n3)c(-c3ccccc3)[nH]c2c1 [Example 7-1, 3-[6-(6-Methoxy-2-phenyl-1H-indol-3-ylmethyl)pyridin-2-yl]-4,5-dihydro-1,2,4-oxadiazol-5-one] | 26 | 66.3 | 83.0 |
| COc1ccc2c(Cc3cccc(C(=O)NC#N)n3)c(-c3ccccc3)[nH]c2c1 [Example 10, N-Cyano-6-(6-methoxy-2-phenyl-1H-indol-3-ylmethyl)pyridine-2-carboxamide] | 26 | 82.9 | 90.7 |
| Cc1ccc2c(Cc3cccc(-c4noc(=O)[nH]4)n3)c(-c3ccoc3)[nH]c2c1 [Example 12-11] | 37 | 74.9 | 46.7 |
| O=c1[nH]c(-c2cccc(Cc3c(-c4ccoc4)[nH]c4cc(C5CC5)ccc34)n2)no1 [Example 12-13] | 26 | 72.9 | 96.0 |
| COc1ccc2c(Cc3cccc(-c4noc(=O)[nH]4)n3)c(C3(C)CC3)[nH]c2c1 [Example 12-14] | 39 | 80.5 | 59.1 |
| COc1cc2[nH]c(C3(C)CC3)c(Cc3cccc(-c4nnn[nH]4)n3)c2cc1Cl [Example 20-3, 5-chloro-6-methoxy-2-(1-methylcyclopropyl)-3-[6-(1H-tetrazol-5-yl)pyridin-2-ylmethyl]-1H-indole] | 27 | 71.7 | 50.0 |

Stronger by IC50 [1], values ahead:

| IC50 [1] [nM] | Compound | Bladder Contraction Inhibition Rate 15 minutes [2] [%] | Bladder Contraction Inhibition Rate 60 minutes [2] [%] |
| --- | --- | --- | --- |
| 15 | Cc1ccc2c(Cc3cccc(-c4nnn[nH]4)n3)c(-c3ccccc3)[nH]c2c1 [Example 5-3, 6-methyl-2-phenyl-3-[6-(1H-tetrazol-5-yl)pyridin-2-ylmethyl]-1H-indole] | 78.2 | 75.8 |
| 5.7 | COc1ccc2c(Cc3cccc(-c4nnn[nH]4)n3)c(-c3ccoc3)[nH]c2c1 [Example 5-11, 2-furan-3-yl-6-methoxy-3-[6-(1H-tetrazol-5-yl)pyridin-2-ylmethyl]-1H-indole] | 99.0 | 99.8 |
| 11 | COc1ccc2c(Cc3cccc(-c4nnn[nH]4)n3)c(C3(C)CC3)[nH]c2c1 [Example 17-11, 6-methoxy-2-(1-methylcyclopropyl)-3-[6-(1H-tetrazol-5-yl)pyridin-2-ylmethyl]-1H-indole] | 92.8 | 100.9 |
| 14 | Cc1ccc2c(Cc3cccc(-c4nnn[nH]4)n3)c(C3(C)CC3)[nH]c2c1 [Example 17-12, 6-methyl-2-(1-methylcyclopropyl)-3-[6-(1H-tetrazol-5-yl)pyridin-2-ylmethyl]-1H-indole] | 81.9 | 74.7 |
